Experimental data taken from patent publication US20160318987A1 (MEDIMMUNE LIMITED, priority 2013, published 2016).
Like-named read-outs stand apart in the source and are kept apart here. *1 amine or outer side, *2 acyl side, *3 side chain or, on linkers, in order; H or OH if unused. Where a SMILES comes first, the peptide text is derived from it. Primed or numbered codes have the meaning given here. Where no end group is shown, it is not given here. Side-chain parts run from the residue outwards. [ ]: non-standard residue; d: D form. The star is where a group is joined. ξ: configuration not given here. Palmitoyl(16-(5-tetrazolyl)) = O=C(CCCCCCCCCCCCCCCc1nnn[nH]1)*; γGlu = O=C(O)[C@H](CCC(=O)[*:2])N[*:1]; Palmitoyl = CCCCCCCCCCCCCCCC(=O)*; αMeF = C[C@](N)(Cc1ccccc1)C(=O)O; ξαMeF = CC(N)(Cc1ccccc1)C(=O)O; αMeK = C[C@](N)(CCCCN)C(=O)O; ξαMeK = CC(N)(CCCCN)C(=O)O; PEG2′ = not defined here; Aib = CC(C)(N)C(=O)O

Legend:
[1] = tested on: DPP-IV, Neprilysin, Chymotrypsin, Trypsin, Pepsin; test: enzyme resistance, protease panel (Table 2 description); assay type: in vitro ADME
Procedure: Peptides for evaluation were prepared to a concentration of 1.0 mg/mL solutions in either pure water, sterile saline for injection (0.9% w/v NaCl/water) or 1× PBS (Dulbecco). 100 μL (100 μg/mL peptide) of these solutions was added to 900 μL of each protease solution. Additional experiments were performed examining protein degradation during exposure to serum and gastric fluid. For serum studies, peptides were incubated with 50% female Sprague-Dawley strain rat serum (SD rat serum). For gastric fluid studies, peptides were incubated 1:1 (volume:volume), fresh rat gastric fluid.
The peptide and enzyme (or serum or gastric fluid) were co-incubated in a temperature regulated water bath at 37° C. for the duration of the experiment. During each experiment 100 μL aliquots (10 μg peptide) of the incubated peptide-enzyme mixture were withdrawn periodically, quenched by addition of an equal volume of 5% TFA (v/v) in 1:1 water/acetonitrile to arrest proteolytic activity, and analyzed by liquid chromatography-mass spectrometry (LC/MS): Agilent Polaris C8-A column (4.6×100 mm, 3 micron) using a linear binary gradient of 10-90% MeCN (0.1% TFA v/v) in water (0.1% TFA v/v) over 30 minutes at 1.5 mL min^−1 at ambient temperature. Analytes were detected by both UV absorption at 210 nm and ionization using a Waters 3100 mass detector (ESI^+ mode). New peptidic species (fragments) derived from enzymatic cleavage of peptides were analyzed post-process, and their molecular masses were used to identify the precise cleavage position (highlighting the scissile bond in each case).

hGLP-1R = molecular target: T1, hGLP-1R (Homo sapiens, UniProt P43220); test: cAMP functional assay, cells expressing human GLP-1 receptor (primary assay); assay type: cell-based; details: n = 2
T1 construct: expressed in transfected cells
T1 sequence (P43220 24-463): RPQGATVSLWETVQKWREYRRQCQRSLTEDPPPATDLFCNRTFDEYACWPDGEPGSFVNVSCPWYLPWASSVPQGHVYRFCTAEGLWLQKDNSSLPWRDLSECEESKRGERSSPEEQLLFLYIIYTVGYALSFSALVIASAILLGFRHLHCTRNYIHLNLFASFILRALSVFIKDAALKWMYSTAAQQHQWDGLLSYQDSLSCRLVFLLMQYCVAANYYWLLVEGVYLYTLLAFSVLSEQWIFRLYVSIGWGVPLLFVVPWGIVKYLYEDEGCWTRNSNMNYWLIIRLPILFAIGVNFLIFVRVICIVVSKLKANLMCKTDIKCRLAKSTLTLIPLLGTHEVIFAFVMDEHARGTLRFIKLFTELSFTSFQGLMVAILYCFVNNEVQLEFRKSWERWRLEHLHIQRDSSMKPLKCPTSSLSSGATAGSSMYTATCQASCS

hGluc-R = molecular target: T2, hGluc-R (Homo sapiens, UniProt P47871); test: cAMP functional assay, cells expressing human glucagon receptor (primary assay); assay type: cell-based; details: n = 2
T2 construct: expressed in transfected cells
T2 sequence (P47871 26-477): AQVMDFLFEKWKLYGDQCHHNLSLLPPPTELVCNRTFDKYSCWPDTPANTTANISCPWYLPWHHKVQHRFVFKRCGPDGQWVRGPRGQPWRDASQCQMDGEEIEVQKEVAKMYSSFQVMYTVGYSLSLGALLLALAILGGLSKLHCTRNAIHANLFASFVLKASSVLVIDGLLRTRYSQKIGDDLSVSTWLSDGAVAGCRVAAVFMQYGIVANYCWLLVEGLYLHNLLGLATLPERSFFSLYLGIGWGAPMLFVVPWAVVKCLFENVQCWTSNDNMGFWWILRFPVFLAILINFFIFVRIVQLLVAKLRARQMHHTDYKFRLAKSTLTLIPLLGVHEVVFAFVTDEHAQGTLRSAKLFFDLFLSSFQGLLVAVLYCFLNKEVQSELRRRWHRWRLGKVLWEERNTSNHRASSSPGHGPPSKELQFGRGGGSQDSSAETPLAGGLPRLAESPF

hGIP-R = molecular target: T3, hGIP-R (Homo sapiens, UniProt P48546); test: cAMP functional assay, cells expressing human GIP receptor (primary assay); assay type: cell-based; details: n = 2
T3 construct: expressed in transfected cells
T3 sequence (P48546 22-466): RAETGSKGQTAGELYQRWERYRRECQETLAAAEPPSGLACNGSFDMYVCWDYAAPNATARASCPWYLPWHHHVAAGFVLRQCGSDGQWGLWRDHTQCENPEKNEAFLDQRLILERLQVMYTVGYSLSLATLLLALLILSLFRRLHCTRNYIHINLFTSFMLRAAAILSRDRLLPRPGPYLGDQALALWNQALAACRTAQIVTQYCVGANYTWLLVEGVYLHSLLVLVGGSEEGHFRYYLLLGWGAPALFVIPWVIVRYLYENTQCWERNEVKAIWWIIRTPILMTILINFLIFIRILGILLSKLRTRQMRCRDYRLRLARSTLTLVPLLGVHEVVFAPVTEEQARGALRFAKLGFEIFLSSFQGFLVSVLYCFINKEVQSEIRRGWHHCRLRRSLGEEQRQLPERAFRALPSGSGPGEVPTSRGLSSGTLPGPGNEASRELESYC

CCCCCCCCCCCCCCCC(=O)N[C@@H](CCC(=O)NCCCC[C@H](NC(=O)CNC(=O)CNC(=O)C(C)(CCCCN)NC(=O)[C@@H](NC(=O)[C@@H](NC(=O)C(C)(Cc1ccccc1)NC(=O)[C@H](C)NC(=O)[C@@H](NC(=O)C(C)(Cc1ccccc1)NC(=O)[C@H](CCC(=O)O)NC(=O)C(C)(CCCCN)NC(=O)[C@H](C)NC(=O)[C@H](C)NC(=O)[C@H](CCC(N)=O)NC(=O)CNC(=O)[C@H](CCC(=O)O)NC(=O)[C@H](CC(C)C)NC(=O)C(C)(Cc1ccccc1)NC(=O)[C@H](CO)NC(=O)[C@H](CO)NC(=O)[C@@H](NC(=O)[C@H](CC(=O)O)NC(=O)[C@H](CO)NC(=O)[C@@H](NC(=O)C(C)(Cc1ccccc1)NC(=O)[C@H](CO)NC(=O)CNC(=O)[C@H](CCC(=O)O)NC(=O)C(C)(C)NC(=O)[C@@H](N)Cc1c[nH]cn1)[C@@H](C)O)C(C)C)[C@@H](C)CC)C(C)C)C(C)C)C(N)=O)C(=O)O (stereo partly drawn) [SEQ ID NO: 54, H-(Aib)^2-EG-(S)^5-(α-MeF)^6-TSDV^10 SS-(α-MeF)^13-LE^15 GQAA-(α-MeK)^20 E-(α-MeF)^22-IA-(α-MeF)^25-(V)^26-V-(α-MeK)^28-G-(G)^30-K(Ε-γ-E-Palm)] (H-H[Aib]EGS[ξαMeF]TSDVSS[ξαMeF]LEGQAA[ξαMeK]E[ξαMeF]IA[ξαMeF]VV[ξαMeK]GGK([γGlu-Palmitoyl])-NH2)
enzyme resistance (DPP-IV, Neprilysin, Chymotrypsin, Trypsin, Pepsin) [1]: Excellent enzyme resistance

CCCCCCCCCCCCCCCC(=O)N[C@@H](CCC(=O)NCCCC[C@H](NC(=O)CNC(=O)CNC(=O)[C@](C)(CCCCN)NC(=O)[C@@H](NC(=O)[C@@H](NC(=O)[C@](C)(Cc1ccccc1)NC(=O)[C@H](C)NC(=O)[C@@H](NC(=O)[C@](C)(Cc1ccccc1)NC(=O)[C@H](CCC(=O)O)NC(=O)[C@](C)(CCCCN)NC(=O)[C@H](C)NC(=O)[C@H](C)NC(=O)[C@H](CCC(=O)O)NC(=O)CNC(=O)[C@H](CCC(=O)O)NC(=O)[C@H](CC(C)C)NC(=O)[C@](C)(Cc1ccccc1)NC(=O)[C@H](CO)NC(=O)[C@H](CO)NC(=O)[C@@H](NC(=O)[C@H](CC(=O)O)NC(=O)[C@H](CO)NC(=O)[C@@H](NC(=O)[C@](C)(Cc1ccccc1)NC(=O)[C@H](CO)NC(=O)CNC(=O)[C@H](CCC(=O)O)NC(=O)C(C)(C)NC(=O)[C@@H](N)Cc1c[nH]cn1)[C@@H](C)O)C(C)C)[C@@H](C)CC)C(C)C)C(C)C)C(N)=O)C(=O)O [SEQ ID NO: 59, H-(Aib)^2-EG-(S)^5-(α-MeF)^6-TSDV^10 SS-(α-MeF)^13-LE^15 G-(E)^17-AA-(α-MeK)^20 E-(α-MeF)^22-IA-(α-MeF)^25-(V)^26-V-(α-MeK)^28-G-(G)^30-K(Ε-γ-E-Palm)] (H-H[Aib]EGS[αMeF]TSDVSS[αMeF]LEGEAA[αMeK]E[αMeF]IA[αMeF]VV[αMeK]GGK([γGlu-Palmitoyl])-NH2)
EC50 (hGLP-1R): 0.218 nM
EC50 (hGluc-R): 89.8 nM
enzyme resistance (DPP-IV, Neprilysin, Chymotrypsin, Trypsin, Pepsin) [1]: Excellent enzyme resistance
EC50 (hGIP-R): 89.8 nM

CC[C@H](C)[C@H](NC(=O)[C@](C)(Cc1ccccc1)NC(=O)[C@H](CCC(=O)O)NC(=O)[C@](C)(CCCCN)NC(=O)[C@H](C)NC(=O)[C@H](C)NC(=O)[C@H](CCC(=O)O)NC(=O)CNC(=O)[C@H](CCC(=O)O)NC(=O)[C@H](CC(C)C)NC(=O)[C@](C)(Cc1ccccc1)NC(=O)[C@H](CO)NC(=O)[C@H](CO)NC(=O)[C@@H](NC(=O)[C@H](CC(=O)O)NC(=O)[C@H](CO)NC(=O)[C@@H](NC(=O)[C@](C)(Cc1ccccc1)NC(=O)[C@H](CO)NC(=O)CNC(=O)[C@H](CCC(=O)O)NC(=O)C(C)(C)NC(=O)[C@@H](N)Cc1c[nH]cn1)[C@@H](C)O)C(C)C)C(=O)N[C@@H](C)C(=O)N[C@@](C)(Cc1ccccc1)C(=O)N[C@H](C(=O)N[C@H](C(=O)N[C@@](C)(CCCCN)C(=O)NCC(=O)NCC(N)=O)C(C)C)C(C)C [SEQ ID NO: 60, H-(Aib)^2-EG-(S)^5-(α-MeF)^6-TSDV^10 SS-(α-MeF)^13-LE^15 G-(E)^17-AA-(α-MeK)^20 E-(α-MeF)^22-IA-(α-MeF)^25-(V)^26-V-(α-MeK)^28-G-(G)^30]
EC50 (hGLP-1R): 0.0212 nM
EC50 (hGluc-R): 66.3 nM
enzyme resistance (DPP-IV, Neprilysin, Chymotrypsin, Trypsin, Pepsin) [1]: Excellent enzyme resistance
EC50 (hGIP-R): 104 nM

CC[C@H](C)[C@H](NC(=O)[C@](C)(Cc1ccccc1)NC(=O)[C@H](CCC(=O)O)NC(=O)[C@](C)(CCCCN)NC(=O)[C@H](C)NC(=O)[C@H](C)NC(=O)[C@H](CCC(=O)O)NC(=O)CNC(=O)[C@H](CCC(=O)O)NC(=O)[C@H](CC(C)C)NC(=O)[C@](C)(Cc1ccccc1)NC(=O)[C@H](CO)NC(=O)[C@H](CO)NC(=O)[C@@H](NC(=O)[C@H](CC(=O)O)NC(=O)[C@H](CO)NC(=O)[C@@H](NC(=O)[C@](C)(Cc1ccccc1)NC(=O)[C@H](CO)NC(=O)CNC(=O)[C@H](CCC(=O)O)NC(=O)C(C)(C)NC(=O)[C@@H](N)Cc1c[nH]cn1)[C@@H](C)O)C(C)C)C(=O)N[C@@H](C)C(=O)N[C@@](C)(Cc1ccccc1)C(=O)N[C@H](C(=O)N[C@H](C(=O)N[C@@](C)(CCCCN)C(=O)NCC(=O)NCC(=O)N[C@@H](CCCCN)C(N)=O)C(C)C)C(C)C [SEQ ID NO: 61, H-(Aib)^2-EG-(S)^5-(α-MeF)^6-TSDV^10 SS-(α-MeF)^13-LE^15 G-(E)^17-AA-(α-MeK)^20 E-(α-MeF)^22-IA-(α-MeF)^25-(V)^26-V-(α-MeK)^28-G-(G)^30-(K)^31] (H-H[Aib]EGS[αMeF]TSDVSS[αMeF]LEGEAA[αMeK]E[αMeF]IA[αMeF]VV[αMeK]GGK-NH2)
EC50 (hGLP-1R): 0.034 nM
EC50 (hGluc-R): 30.4 nM
enzyme resistance (DPP-IV, Neprilysin, Chymotrypsin, Trypsin, Pepsin) [1]: Excellent enzyme resistance
EC50 (hGIP-R): 99.7 nM

H-(Aib)^2-EG-(S)^5-(α-MeF)^6-TSDV^10 SS-(α-MeF)^13-LE^15 GQAA-(α-MeK)^20 E-(α-MeF)22^-IA-(α-MeF)^25-(V)^26-V-(α-MeK)^28-G-(G)^30-K(Ε-γ-E-Tetrazolylpalm) (H[Aib]EGS[αMeF]TSDVSS[αMeF]LEGQAA[αMeK]E[αMeF]IA[αMeF]VV[αMeK]GGK([γGlu-Palmitoyl(16-(5-tetrazolyl))])) [SEQ ID NO: 55]
enzyme resistance (DPP-IV, Neprilysin, Chymotrypsin, Trypsin, Pepsin) [1]: Excellent enzyme resistance

H-(Aib)^2-EG-(S)^5-(α-MeF)^6-TSDV^10 SS-(α-MeF)^13-LE^15 GQAA-(α-MeK)^20 E-(α-MeF)^22-IA-(α-MeF)^25-(V)^26-V-(α-MeK)^28-G-(G)^30-K(Ε-Tetrazolylpalm) (H[Aib]EGS[αMeF]TSDVSS[αMeF]LEGQAA[αMeK]E[αMeF]IA[αMeF]VV[αMeK]GGK(Palmitoyl(16-(5-tetrazolyl))); not fully specified (C-terminus); printed as H-(Aib)^2-EG-(S)^5-(α-MeF)^6-TSDV^10 SS-(α-MeF)^13-LE^15 GQAA-(α-MeK)^20 E-(α-MeF)^22-IA-(α-MeF)^25-(V)^26-V-(α-MeK)^28-G-(G)^30-K(Ε-Tetrazolylpalm)) [SEQ ID NO: 53]
EC50 (hGLP-1R; read-out: Primary assay EC50 (n = 2) hGLP-1R): 0.0451 nM
enzyme resistance (DPP-IV, Neprilysin, Chymotrypsin, Trypsin, Pepsin) [1]: Excellent enzyme resistance

H-(Aib)^2-EG-(S)^5-(α-MeF)^6-TSDV^10 SS-(α-MeF)^13-LE^15 GQAA-(α-MeK)^20 E-(α-MeF)^22-IA-(α-MeF)^25-(V)^26-V-(α-MeK)^28-G-(G)^30-K(Ε-γ-E-(PEG)^2-Tetrazolylpalm) (H[Aib]EGS[αMeF]TSDVSS[αMeF]LEGQAA[αMeK]E[αMeF]IA[αMeF]VV[αMeK]GGK([γGlu-PEG2′-Palmitoyl(16-(5-tetrazolyl))]); not fully specified; printed as H-(Aib)^2-EG-(S)^5-(α-MeF)^6-TSDV^10 SS-(α-MeF)^13-LE^15 GQAA-(α-MeK)^20 E-(α-MeF)^22-IA-(α-MeF)^25-(V)^26-V-(α-MeK)^28-G-(G)^30-K(Ε-γ-E-(PEG)^2-Tetrazolylpalm)) [SEQ ID NO: 56]
enzyme resistance (DPP-IV, Neprilysin, Chymotrypsin, Trypsin, Pepsin) [1]: Excellent enzyme resistance
